Measured values: US8501770B2 (ArQule, Inc., priority 2009, dated 2013)
Where a name gives a salt, the structure may show the parent alone. Read-outs that look alike come from different tables or passages of the source.

Biological target: Full-length inactive AKT1 (Homo sapiens, UniProt P31749)
Assay: Inactive Akt Alpha Screen Assay
Assay type: biochemical
Procedure, shortened: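 AlphaScreen read-out (excitation 640 nm, emission 570 nm) after 90 min incubation at room temperature in the dark. Signal comes from crosstide phosphorylation by AKT1, which was activated by added PDK1, MAPKAPK2, ATP and lipid vesicles, captured via phospho-AKT substrate antibody and streptavidin beads.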

[1] = values not marked with "*", read-out: Akt1 IC50, (AlphaScreen)
[2] = values not marked with "*": AlphaScreen assay, read-out: Akt1 IC50, (AlphaScreen)
[3] = AlphaScreen assay (values not marked with *), read-out: Akt1 IC50, (AlphaScreen) (μM) (or if marked with “*” HTRF assay)

Sequence of Full-length inactive AKT1 (P31749 whole entry): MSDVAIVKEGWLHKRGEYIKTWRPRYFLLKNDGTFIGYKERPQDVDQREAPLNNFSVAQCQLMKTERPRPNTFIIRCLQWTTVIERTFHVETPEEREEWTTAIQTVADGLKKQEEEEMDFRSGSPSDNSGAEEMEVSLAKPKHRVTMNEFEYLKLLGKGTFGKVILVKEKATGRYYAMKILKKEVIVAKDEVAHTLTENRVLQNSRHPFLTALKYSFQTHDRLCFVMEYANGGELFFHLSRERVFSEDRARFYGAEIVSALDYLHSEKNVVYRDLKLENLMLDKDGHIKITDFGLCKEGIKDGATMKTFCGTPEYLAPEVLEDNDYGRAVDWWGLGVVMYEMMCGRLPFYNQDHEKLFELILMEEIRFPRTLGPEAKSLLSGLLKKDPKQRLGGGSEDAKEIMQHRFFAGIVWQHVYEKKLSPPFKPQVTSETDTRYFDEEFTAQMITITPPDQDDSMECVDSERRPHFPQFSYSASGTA

| Compound | IC50 [1] [µM] | other results |
| --- | --- | --- |
| Cc1cnc2c(c1)nc(-c1cccnc1N)n2-c1ccc(CNC(=O)c2cn(C)c3ccccc23)cc1 [Example 212, N-(4-(2-(2-aminopyridin-3-yl)-6-methyl-3H-imidazo[4,5-b]pyridin-3-yl)benzyl)-1-methyl-1H-indole-3-carboxamide] | 0.2 | – |
| COc1ccccc1C(=O)NCc1ccc(-n2c(-c3cccnc3N)nc3cccnc32)cc1 [Example 50] | – | IC50 [2]: 2.61 µM |
| CC(C)(C)OC(=O)NCc1ccc(-n2c(-c3cccnc3N)nc3cccnc32)cc1 [Example 9] | – | IC50 [2]: 2.47 µM |
| Cc1ccc2cc(NC(=O)Cc3ccc(-n4c(-c5cccnc5N)nc5cccnc54)cc3)ccc2n1 [Example 123, hydrochloride] | – | IC50 [2]: 0.128 µM |
| Nc1ncccc1-c1nc2cc(-c3cccnc3)cnc2n1-c1ccc(CNS(=O)(=O)c2ccc(Cl)cc2)cc1 [Example 207, N-(4-(2-(2-aminopyridin-3-yl)-6-(pyridin-3-yl)-3H-imidazo[4,5-b]pyridin-3-yl)benzyl)-4-chlorobenzenesulfonamide] | 0.06 | – |
| Cc1ccnc(NC(=O)c2ccc(-n3c(-c4cccnc4N)nc4cccnc43)cc2)c1 [Example 179, 4-[2-(2-aminopyridin-3-yl)-3H-imidazo[4,5-b]pyridin-3-yl]-N-(4-methylpyridin-2-yl)benzamide] | 0.53 | – |
| Nc1ncccc1-c1nc2cccnc2n1-c1ccc(CNS(=O)(=O)c2cccnc2)cc1 [Example 94] | – | IC50 [2]: 0.142 µM |
| Cc1cnc2c(c1)nc(-c1cccnc1N)n2-c1ccc(CNC(=O)c2cccc3ccccc23)cc1 [Example 224, N-(4-(2-(2-aminopyridin-3-yl)-6-methyl-3H-imidazo[4,5-b]pyridin-3-yl)benzyl)-1-naphthamide] | 0.05 | – |
| Nc1ncccc1-c1nc2cc(Br)cnc2n1-c1ccc(CNS(=O)(=O)c2ccc3c(c2)CCO3)cc1 [Example 161, N-{4-[2-(2-aminopyridin-3-yl)-6-bromo-3H-imidazo[4,5-b]pyridin-3-yl]benzyl}-2,3-dihydro-1-benzofuran-5-sulfonamide] | 0.29 | – |
| Nc1ncccc1-c1nc2cccnc2n1-c1ccc(CNCc2ccccc2)cc1 [Example 37] | – | IC50 [2]: 0.205 µM |
| Nc1ncccc1-c1nc2ccc(-c3cccc(N4CCCOCC4)c3)nc2n1-c1ccc(C2(N)CCC2)cc1 [Example 459, 3-{3-[4-(1-aminocyclobutyl)phenyl]-5-[3-(1,4-oxazepan-4-yl)phenyl]-3H-imidazo[4,5-b]pyridin-2-yl}pyridin-2-amine] | – | IC50 [3]: 0.0077 µM |
| COc1ccc(NC(=O)NCc2ccc(-n3c(-c4cccnc4N)nc4cc(F)cnc43)cc2)cc1 [Example 176, 1-{4-[2-(2-aminopyridin-3-yl)-6-fluoro-3H-imidazo[4,5-b]pyridin-3-yl]benzyl}-3-(4-methoxyphenyl)urea] | 1.2 | – |
| Nc1ncccc1-c1nc2ccc(-c3cccc(N4CCOCC4)n3)nc2n1-c1ccc(C2(N)CCC2)cc1 [Example 451, 3-{3-[4-(1-aminocyclobutyl)phenyl]-5-(6-morpholin-4-ylpyridin-2-yl)-3H-imidazo[4,5-b]pyridin-2-yl}pyridin-2-amine] | – | IC50 [3]: 0.0071 µM |
| Nc1ncccc1-c1nc2cccnc2n1-c1ccc(CNC(=O)c2ccc3c(c2)CCO3)cc1 [Example 64] | – | IC50 [2]: 1.13 µM |
| Nc1ncccc1-c1nc2cccnc2n1-c1ccc(CNC(=O)c2cccs2)cc1 [Example 48] | – | IC50 [2]: 0.196 µM |
| COc1cccc(NC(=O)Cc2ccc(-n3c(-c4cccnc4N)nc4cccnc43)cc2)c1 [Example 119, hydrochloride] | – | IC50 [2]: 0.233 µM |
| Cc1ccc(S(=O)(=O)NCc2ccc(-n3c(-c4cccnc4N)nc4cc(Br)cnc43)cc2)cc1 [Example 162, N-{4-[2-(2-aminopyridin-3-yl)-6-bromo-3H-imidazo[4,5-b]pyridin-3-yl]benzyl}-4-methylbenzenesulfonamide] | 0.45 | – |
| CC(=O)Nc1ccccc1C(=O)NCc1ccc(-n2c(-c3cccnc3N)nc3cccnc32)cc1 [Example 43] | – | IC50 [2]: 1.41 µM |
| CC(=O)Nc1ccc(NC(=O)Cc2ccc(-n3c(-c4cccnc4N)nc4cc(C)cnc43)cc2)cc1 [Example 193, N-(4-acetamidophenyl)-2-(4-(2-(2-aminopyridin-3-yl)-6-methyl-3H-imidazo[4,5-b]pyridin-3-yl)phenyl)acetamide] | 0.062 | – |

More lines, main results first:

| IC50 [1] [µM] | Compound | other results |
| --- | --- | --- |
| 0.0071 | N#Cc1cccc(-c2ccc3nc(-c4cccnc4N)n(-c4ccc(C5(N)CCC5)cc4)c3n2)c1 [Example 392, 3-(3-(4-(1-aminocyclobutyl)phenyl)-2-(2-aminopyridin-3-yl)-3H-imidazo[4,5-b]pyridin-5-yl)benzonitrile] | – |
| 0.021 | CN(C)C(=O)c1ccc(-c2ccc3nc(-c4cccnc4N)n(-c4ccc(C5(N)CCC5)cc4)c3n2)cc1 [Example 399, 4-(3-(4-(1-aminocyclobutyl)phenyl)-2-(2-aminopyridin-3-yl)-3H-imidazo[4,5-b]pyridin-5-yl)-N,N-dimethylbenzamide] | – |
| 0.044 | Cc1cc2nc(-c3cccnc3N)n(-c3ccc(CNC(=O)c4ccccc4)cc3)c2nc1-c1ccccc1 [Example 345, N-(4-(2-(2-aminopyridin-3-yl)-6-methyl-5-phenyl-3H-imidazo[4,5-b]pyridin-3-yl)benzyl)benzamide] | – |
| 0.25 | Nc1ncccc1-c1nc2cc(-c3ccccc3)cnc2n1-c1ccc(C2(C(=O)O)CCC2)cc1 [Example 363, 1-(4-(2-(2-aminopyridin-3-yl)-6-phenyl-3H-imidazo[4,5-b]pyridin-3-yl)phenyl)cyclobutanecarboxylic acid] | – |
| 0.011 | CCCOc1cccc(-c2ccc3nc(-c4cccnc4N)n(-c4ccc(C5(N)CCC5)cc4)c3n2)c1 [Example 422, 3-{3-[4-(1-aminocyclobutyl)phenyl]-5-(3-propoxyphenyl)-3H-imidazo[4,5-b]pyridin-2-yl}pyridin-2-amine] | – |
| 0.0082 | Nc1ncccc1-c1nc2ccc(-c3cc[nH]n3)nc2n1-c1ccc(C2(N)CCC2)cc1 [Example 418, 3-{3-[4-(1-aminocyclobutyl)phenyl]-5-(1H-pyrazol-3-yl)-3H-imidazo[4,5-b]pyridin-2-yl}pyridin-2-amine] | – |
| 0.0049 | COc1ccc(-c2ccc3nc(-c4cccnc4N)n(-c4ccc(C5(N)CCC5)cc4)c3n2)cc1OC [Example 414, 3-{3-[4-(1-aminocyclobutyl)phenyl]-5-(3,4-dimethoxyphenyl)-3H-imidazo[4,5-b]pyridin-2-yl}pyridin-2-amine] | – |
| 0.036 | C[S+]([O-])c1ccc(-c2ccc3nc(-c4cccnc4N)n(-c4ccc(CNC(=O)c5cccc(F)c5)cc4)c3n2)cc1 (centres unmarked) [Example 315, N-(4-(2-(2-aminopyridin-3-yl)-5-(4-(methylsulfinyl)phenyl)-3H-imidazo[4,5-b]pyridin-3-yl)benzyl)-3-fluorobenzamide] | – |
| 0.0053 | CN(C)c1cccc(-c2ccc3nc(-c4cccnc4N)n(-c4ccc(C5(N)CCC5)cc4)c3n2)c1 [Example 409, 3-{3-[4-(1-aminocyclobutyl)phenyl]-5-[3-(dimethylamino)phenyl]-3H-imidazo[4,5-b]pyridin-2-yl}pyridin-2-amine] | – |
| 0.42 | Nc1ncccc1-c1nc2ccc(-c3ccc4cc[nH]c4c3)nc2n1-c1ccc(CNC(=O)c2cccc(F)c2)cc1 [Example 331, N-(4-(2-(2-aminopyridin-3-yl)-5-(1H-indol-6-yl)-3H-imidazo[4,5-b]pyridin-3-yl)benzyl)-3-fluorobenzamide] | – |
| 0.14 | Cc1cnc2c(c1)nc(-c1cccnc1N)n2-c1ccc(CNC(=O)c2cccc(Cl)c2)cc1 [Example 282, N-(4-(2-(2-aminopyridin-3-yl)-6-methyl-3H-imidazo[4,5-b]pyridin-3-yl)benzyl)-3-chlorobenzamide] | – |
| 0.0023 | CN(CCO)C(=O)c1cccc(-c2ccc3nc(-c4cccnc4N)n(-c4ccc(C5(N)CCC5)cc4)c3n2)c1 [Example 386, 3-(3-(4-(1-aminocyclobutyl)phenyl)-2-(2-aminopyridin-3-yl)-3H-imidazo[4,5-b]pyridin-5-yl)-N-(2-hydroxyethyl)-N-methylbenzamide] | – |
| 0.027 | NCc1ccc(-n2c(-c3cccnc3N)nc3ccc(-c4cccc(C(=O)O)c4)nc32)cc1 [Example 357, 3-(3-(4-(aminomethyl)phenyl)-2-(2-aminopyridin-3-yl)-3H-imidazo[4,5-b]pyridin-5-yl)benzoic acid] | – |
| 0.021 | Nc1ncccc1-c1nc2cc(-c3cccnc3)cnc2n1-c1ccc(CNC(=O)c2cccc(F)c2)cc1 [Example 239, N-(4-(2-(2-aminopyridin-3-yl)-6-(pyridin-3-yl)-3H-imidazo[4,5-b]pyridin-3-yl)benzyl)-3-fluorobenzamide] | – |
| 0.023 | CC(=O)Nc1cccc(-c2nc3c(cc2C)nc(-c2cccnc2N)n3-c2ccc(CNC(=O)c3ccccc3)cc2)c1 [Example 344, N-(4-(5-(3-acetamidophenyl)-2-(2-aminopyridin-3-yl)-6-methyl-3H-imidazo[4,5-b]pyridin-3-yl)benzyl)benzamide] | – |
| 0.22 | Cc1cnc2c(c1)nc(-c1cccnc1N)n2-c1ccc(CNC(=O)C2CCCC2)cc1 [Example 273, N-(4-(2-(2-aminopyridin-3-yl)-6-methyl-3H-imidazo[4,5-b]pyridin-3-yl)benzyl)cyclopentanecarboxamide] | – |
| 0.16 | Nc1ncccc1-c1nc2ccc(-c3ccc4c(c3)OCCO4)nc2n1-c1ccc(CNC(=O)c2cccc(F)c2)cc1 [Example 332, N-(4-(2-(2-aminopyridin-3-yl)-5-(2,3-dihydro-benzo[b][1,4]dioxin-6-yl)-3H-imidazo[4,5-b]pyridin-3-yl)benzyl)-3-fluorobenzamide] | – |
| 0.061 | CC(=O)Nc1ccc(NC(=O)Cc2ccc(-n3c(-c4cccnc4N)nc4cc(F)cnc43)cc2)cc1 [Example 342, N-(4-acetamidophenyl)-2-(4-(2-(2-aminopyridin-3-yl)-6-fluoro-3H-imidazo[4,5-b]pyridin-3-yl)phenyl)acetamide] | – |
| 0.18 | Cc1ccc2nc(-c3cccnc3N)n(-c3ccc(CC(=O)c4ccccc4)cc3)c2n1 [Example 349, 2-(4-(2-(2-aminopyridin-3-yl)-5-methyl-3H-imidazo[4,5-b]pyridin-3-yl)phenyl)-1-phenylethanone] | – |
